Measured values published in patent US20220105150A1, “AMPHIPATHIC ALPHA-HELICAL ANTIMICROBIAL PEPTIDES TREAT INFECTIONS BY GRAM-NEGATIVE PATHOGENS” (priority 2019, published 2022).

How the values were obtained:
[1] = Peptide self-association by temperature profiling in RP-HPLC; type: physicochemical; conditions: for PA: self-association parameter relative to random coil control peptide RC; for Tp: temperature at which maximum retention time is observed, 5-77° C.
Method: Retention behavior from eight AMPs after normalization to their retention times at 5° C. over the temperature range 5° C. to 41° C. in 2° C. increments or 5° C. to 75° C. in 10° C. increments (methodology details provided in Examples). […] Peptide denotions in FIG. 5 have been abbreviated from those shown in Table 1G; for example, D87(Lys1-6 Arg-1) has been shortened to D87(6 Arg-1). RC is a random coil control peptide used for RP-HPLC temperature profiling. The peptide self-association parameter, PA, represents the maximum change in peptide retention time relative to the random coil peptide, RC (PA values shown in Table 6). […] T., et al. J. Med. Chem. 2019, 62:3354-66.
Hemoglobin release was determined spectrophotometrically at 570 nm.
Peptide self-association, the ability to dimerize/oligomerize in aqueous solution, is a very important parameter to optimize antimicrobial activity and toxicity as measured by hemolytic activity. We have proposed that the monomeric random-coil antimicrobial peptides in aqueous solution are best suited to pass through a polysaccharide capsule, the outer membrane lipopolysaccharide and the cell wall peptidoglycan layer of Gram-negative bacteria prior to penetration into the cytoplasmic membrane, where there is induction of α-helical structure and disruption of membrane structure, cell leakage and death of bacterial cells. In contrast, if the self-association ability of an AMP in aqueous medium is too strong, stable folded dimers/oligomers are formed through interaction of their non-polar faces which decreases the ability of the AMP to dissociate to monomer and the dimer/oligomer to effectively pass through the capsule and cell wall to reach the cytoplasmic membrane. The ability of an AMP to self-associate was determined by a RP-HPLC technique developed in our laboratory, referred to as temperature profiling over the temperature range 5° C. to 80° C. […] These eight AMPs are compared to a random-coil control peptide denoted RC. […] This linear decrease in retention behavior with increasing temperature represents the general effects of temperature due to greater solute diffusivity and enhanced mass transfer between the mobile and stationary phases. The difference in retention time between an amphipathic α-helical antimicrobial peptide and the RC control peptide is a measure of the ability of a peptide to associate. The association parameter, PA is large for AMPs without specificity determinants (Ala 13 and Ala 16) ranging from 12.5 to 28.0 min (Table 6) and is shown by a black arrow in FIG. 5. The association parameter, PA, is dramatically smaller for AMPs with specificity determinants (Lys 13 and Lys 16 in the center of the non-polar face) and range from 0 to 6 min (Table 6). […]

[2] = Peptide hydrophobicity by RP-HPLC retention time; type: physicochemical; conditions: RP-HPLC retention time at pH 2, 25° C.
Method: Column: Zorbax 300 SB-C8, 150×2.1 mm ID, 5-μm particle size, 300-Å pore size; conditions, linear AB gradient (0.25% acetonitrile/min) at a flow-rate of 0.3 ml/min, where eluent A was 20 mM aq. TFA and eluent B was 20 mM TFA in acetonitrile and the temperature was 25° C. The sequences of the ten peptides (with seven peptides containing Lys specificity determinants at positions 13 and 16 of the non-polar face (see FIG. 1) are shown in Table 1G. Peptide denotions in FIG. 4 have been abbreviated from those shown in Table 1G; for example, D87(Lys1-6 Arg-1) has been shortened to D87(6 Arg-1). For the peptides without specificity determinants, we have added A13/A16 to the peptide denotions. It is interesting that the Dab containing peptides are more hydrophilic than the Dap containing peptides even thought the Dab containing peptides have an additional carbon atom per Dab residue.
Retention behavior in reversed-phase chromatography is an excellent method to represent overall peptide hydrophobicity. […] All ten peptides used in this study could be readily separated by reversed-phase chromatography with the seven peptides with specificity determinants being much more hydrophilic than the three control peptides without specificity determinants (FIG. 4). […]

For `CC(=O)N[C@H](CCCCN)C(=O)N[C@H](CC(C)C)C(=O)N[C@H](CCN)C(=O)N[C@H](CO)C(=O)N[C@H](CC(C)C)C(=O)N[C@H](CC(C)C)C(=O)N[C@H](CCN)C(=O)N[C@@H](C(=O)N[C@H](CC(C)C)C(=O)N[C@H](CO)C(=O)N[C@H](CCN)C(=O)N[C@H](C)C(=O)N[C@H](C)C(=O)N[C@H](C)C(=O)N[C@H](C)C(=O)N[C@H](C)C(=O)N[C@H](CC(C)C)C(=O)N[C@H](CCN)C(=O)N[C@@H](C(=O)N[C@H](CC(C)C)C(=O)N[C@H](CC(C)C)C(=O)N[C@H](CCN)C(=O)N[C@H](C)C(=O)N[C@H](CC(C)C)C(=O)N[C@H](CO)C(=O)N[C@H](CCN)C(N)=O)[C@H](C)O)[C@H](C)O` [D86(K13A/K16A)-(Lys^1-6Dab-1), Ac-KL(Dab)SLL(Dab)TLS(Dab)AAAAAL(Dab)TLL(Dab)ALS(Dab)-amide], the PA [1] was 12.5 min, the Tp [1] was 31.0 °C and the “Hydrophobicity pH 2 tR” value [2] was 158.3 min.
With `CC(=O)N[C@H](CCCCN)C(=O)N[C@H](CC(C)C)C(=O)N[C@H](CN)C(=O)N[C@H](CO)C(=O)N[C@H](CC(C)C)C(=O)N[C@H](CC(C)C)C(=O)N[C@H](CN)C(=O)N[C@@H](C(=O)N[C@H](CC(C)C)C(=O)N[C@H](CO)C(=O)N[C@H](CN)C(=O)N[C@H](C)C(=O)N[C@H](C)C(=O)N[C@H](C)C(=O)N[C@H](C)C(=O)N[C@H](C)C(=O)N[C@H](CC(C)C)C(=O)N[C@H](CN)C(=O)N[C@@H](C(=O)N[C@H](CC(C)C)C(=O)N[C@H](CC(C)C)C(=O)N[C@H](CN)C(=O)N[C@H](C)C(=O)N[C@H](CC(C)C)C(=O)N[C@H](CO)C(=O)N[C@H](CN)C(N)=O)[C@H](C)O)[C@H](C)O` [D105(K13A/K16A)-(Lys^1-6Dap-1), Ac-KL(Dap)SLL(Dap)TLS(Dap)AAAAAL(Dap)TLL(Dap)ALS(Dap)-amide] the PA [1] was 18.0 min, the Tp [1] was 39.0 °C and the “Hydrophobicity pH 2 tR” value [2] was 172.3 min.
